Data taken from ChEMBL document CHEMBL3797176, “Identification of selenocompounds with promising properties to reverse cancer multidrug resistance” (Bioorg Med Chem Lett, 2016).

Key:
L5178Y [1] = assay: Cytotoxicity against mouse L5178Y cells assessed as growth inhibition after 72 hrs by MTT assay; assay type: functional, cell-based
[2] = molecular target: T1, ATP-dependent translocase ABCB1 (Homo sapiens, UniProt P08183); assay: Inhibition of human MDR1 transfected in multi-drug resistant mouse L5178Y cells assessed as fluorescence activity ratio at 20 uM incubated for 10 mins by rhodamine 123 accumulation assay; assay type: cell-based
L5178Y [3] = assay: Cytotoxicity against multi-drug resistant mouse L5178Y cells assessed as growth inhibition after 72 hrs by MTT assay; assay type: functional, cell-based
L5178Y [4] = assay: Induction of apoptosis in mouse L5178Y cells assessed as cell death at 2 uM after 1 hr by Annexin V-FITC/propidium iodide staining-based flow cytometry (reference value: 0.191%); assay type: functional
L5178Y [5] = assay: Induction of apoptosis in multi-drug resistant mouse L5178Y cells transfected with human MDR1 assessed as early apoptosis at 2 uM after 1 hr by Annexin V-FITC/propidium iodide staining-based flow cytometry (reference value: 6.46%); assay type: functional
[6] = molecular target: T1, ATP-dependent translocase ABCB1; assay: Inhibition of human MDR1 transfected in multi-drug resistant mouse L5178Y cells assessed as fluorescence activity ratio at 2 uM incubated for 10 mins by rhodamine 123 accumulation assay; assay type: cell-based
[7] = molecular target: T1, ATP-dependent translocase ABCB1; assay: Inhibition of human MDR1 transfected in multi-drug resistant mouse L5178Y cells assessed as fluorescence activity ratio quotient at 20 uM incubated for 10 mins by rhodamine 123 accumulation assay relative to verapamil; assay type: cell-based; parameters: scale not given: the % may be the effect or the level left
L5178Y [8] = assay: Induction of apoptosis in multi-drug resistant mouse L5178Y cells transfected with human MDR1 assessed as late apoptosis/necrosis at 2 uM after 1 hr by Annexin V-FITC/propidium iodide staining-based flow cytometry (reference value: 2.28%); assay type: functional
L5178Y [9] = assay: Induction of apoptosis in multi-drug resistant mouse L5178Y cells transfected with human MDR1 assessed as cell death at 2 uM after 1 hr by Annexin V-FITC/propidium iodide staining-based flow cytometry (reference value: 0.09%); assay type: functional
L5178Y [10] = assay: Induction of apoptosis in mouse L5178Y cells assessed as early apoptosis at 2 uM after 1 hr by Annexin V-FITC/propidium iodide staining-based flow cytometry (reference value: 3.96%); assay type: functional
L5178Y [11] = assay: Induction of apoptosis in mouse L5178Y cells assessed as late apoptosis/necrosis at 2 uM after 1 hr by Annexin V-FITC/propidium iodide staining-based flow cytometry (reference value: 0.859%); assay type: functional
[12] = molecular target: T1, ATP-dependent translocase ABCB1; assay: Inhibition of human MDR1 transfected in multi-drug resistant mouse L5178Y cells assessed as fluorescence activity ratio quotient at 2 uM incubated for 10 mins by rhodamine 123 accumulation assay relative to verapamil; assay type: cell-based; parameters: scale not given: the % may be the effect or the level left
[13] = molecular target: T1, ATP-dependent translocase ABCB1; assay: Inhibition of human MDR1 transfected in multi-drug resistant mouse L5178Y cells at 2 uM incubated for 10 mins by rhodamine 123 accumulation assay relative to verapamil; assay type: cell-based
[14] = molecular target: T1, ATP-dependent translocase ABCB1; assay: Inhibition of human MDR1 transfected in multi-drug resistant mouse L5178Y cells at 20 uM incubated for 10 mins by rhodamine 123 accumulation assay relative to verapamil; assay type: cell-based
L5178Y [15] = assay: Induction of apoptosis in mouse L5178Y cells assessed as cell death at 20 uM after 1 hr by Annexin V-FITC/propidium iodide staining-based flow cytometry (reference value: 0.191%); assay type: functional
L5178Y [16] = assay: Induction of apoptosis in mouse L5178Y cells assessed as early apoptosis at 20 uM after 1 hr by Annexin V-FITC/propidium iodide staining-based flow cytometry (reference value: 3.96%); assay type: functional
L5178Y [17] = assay: Induction of apoptosis in mouse L5178Y cells assessed as late apoptosis/necrosis at 20 uM after 1 hr by Annexin V-FITC/propidium iodide staining-based flow cytometry (reference value: 0.859%); assay type: functional
L5178Y [18] = assay: Induction of apoptosis in multi-drug resistant mouse L5178Y cells transfected with human MDR1 assessed as early apoptosis at 20 uM after 1 hr by Annexin V-FITC/propidium iodide staining-based flow cytometry (reference value: 6.46%); assay type: functional
L5178Y [19] = assay: Induction of apoptosis in multi-drug resistant mouse L5178Y cells transfected with human MDR1 assessed as late apoptosis/necrosis at 20 uM after 1 hr by Annexin V-FITC/propidium iodide staining-based flow cytometry (reference value: 2.28%); assay type: functional
L5178Y [20] = assay: Induction of apoptosis in multi-drug resistant mouse L5178Y cells transfected with human MDR1 assessed as cell death at 20 uM after 1 hr by Annexin V-FITC/propidium iodide staining-based flow cytometry (reference value: 0.09%); assay type: functional
L5178Y [21] = assay: Ratio of induction of apoptosis in mouse L5178Y cells to multi-drug resistant mouse L5178Y cells transfected with human MDR1; assay type: functional

T1 sequence (P08183 whole entry): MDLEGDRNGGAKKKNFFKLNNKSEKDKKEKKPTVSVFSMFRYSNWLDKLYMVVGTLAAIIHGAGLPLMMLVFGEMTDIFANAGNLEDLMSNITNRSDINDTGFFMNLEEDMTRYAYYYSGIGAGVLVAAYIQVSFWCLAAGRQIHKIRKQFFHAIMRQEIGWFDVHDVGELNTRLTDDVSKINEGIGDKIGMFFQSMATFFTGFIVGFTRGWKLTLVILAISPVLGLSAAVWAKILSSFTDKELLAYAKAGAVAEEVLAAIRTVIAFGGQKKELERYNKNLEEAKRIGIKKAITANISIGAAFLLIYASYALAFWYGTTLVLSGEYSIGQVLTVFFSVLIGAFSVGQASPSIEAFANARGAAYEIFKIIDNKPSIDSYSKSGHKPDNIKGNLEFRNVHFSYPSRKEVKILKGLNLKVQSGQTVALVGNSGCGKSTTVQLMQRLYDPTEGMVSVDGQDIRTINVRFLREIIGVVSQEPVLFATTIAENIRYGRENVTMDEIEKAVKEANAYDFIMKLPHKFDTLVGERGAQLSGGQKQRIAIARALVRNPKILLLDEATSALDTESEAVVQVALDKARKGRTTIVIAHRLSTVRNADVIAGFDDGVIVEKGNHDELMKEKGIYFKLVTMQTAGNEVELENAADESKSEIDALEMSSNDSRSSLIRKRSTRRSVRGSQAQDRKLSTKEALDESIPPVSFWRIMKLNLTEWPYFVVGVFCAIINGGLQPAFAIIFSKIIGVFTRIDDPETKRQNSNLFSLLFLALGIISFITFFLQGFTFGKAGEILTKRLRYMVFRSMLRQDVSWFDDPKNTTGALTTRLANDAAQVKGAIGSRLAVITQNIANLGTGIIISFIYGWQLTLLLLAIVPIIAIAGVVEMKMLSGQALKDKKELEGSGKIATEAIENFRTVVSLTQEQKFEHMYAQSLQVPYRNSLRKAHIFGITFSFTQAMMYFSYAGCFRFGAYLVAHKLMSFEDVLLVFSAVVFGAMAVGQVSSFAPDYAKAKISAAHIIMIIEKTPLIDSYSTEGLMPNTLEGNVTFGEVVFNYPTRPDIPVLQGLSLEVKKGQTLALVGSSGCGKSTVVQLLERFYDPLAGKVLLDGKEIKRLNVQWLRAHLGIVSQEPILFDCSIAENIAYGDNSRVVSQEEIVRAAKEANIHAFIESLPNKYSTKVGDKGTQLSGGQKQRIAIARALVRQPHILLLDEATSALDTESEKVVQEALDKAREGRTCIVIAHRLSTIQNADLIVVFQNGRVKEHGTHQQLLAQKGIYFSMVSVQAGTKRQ

SMILES: NC(=O)C[Se]C(=O)c1ccccc1
- IC50 (L5178Y [1]): > 100 µM
- Ratio [2]: 1.05
- IC50 (L5178Y [3]): 36.4 µM
- Activity (L5178Y [4]): 0.081%
- Activity (L5178Y [5]): 3.01%
- Ratio [6]: 1.02
- Activity [7]: 3.72%
- Activity (L5178Y [8]): 2.91%
- Activity (L5178Y [9]): 0.33%
- Activity (L5178Y [10]): 2.46%
- Activity (L5178Y [11]): 2.24%
- Activity [12]: 3.04%

SMILES: CSc1ccc2c(c1)N(CCC1CCCCN1C)c1ccccc1S2 (stereo not drawn) [THIORIDAZINE]
- IC50 (L5178Y [1]): 12.7 µM
- IC50 (L5178Y [3]): 7.43 µM

SMILES: C[Se]C(=O)c1ccc(C(=O)[Se]C)cc1
- IC50 (L5178Y [1]): > 100 µM
- Ratio [2]: 3.09
- IC50 (L5178Y [3]): > 100 µM
- Activity (L5178Y [4]): 0.11%
- Activity (L5178Y [5]): 3.01%
- Ratio [6]: 3.97
- Activity [7]: 14.49%
- Activity (L5178Y [8]): 3.25%
- Activity (L5178Y [9]): 0.37%
- Activity (L5178Y [10]): 3.61%
- Activity (L5178Y [11]): 2.01%
- Activity [12]: 18.64%

SMILES: O=C1[Se]C(=O)c2ccccc21
- IC50 (L5178Y [1]): 3.97 µM
- Ratio [2]: 97.61
- IC50 (L5178Y [3]): 4.65 µM
- Activity (L5178Y [4]): 0.767%
- Activity (L5178Y [5]): 32.2%
- Ratio [6]: 43.14
- Activity [7]: 356.2%
- Activity (L5178Y [8]): 45%
- Activity (L5178Y [9]): 0.47%
- Activity (L5178Y [10]): 31.5%
- Activity (L5178Y [11]): 53.9%
- Activity [12]: 157.4%
- fold change (FC) [13]: 1.6
- fold change (FC) [14]: 1.7

SMILES: C[Se]C(=O)c1ccc(C(=O)[Se]C)s1
- IC50 (L5178Y [1]): > 100 µM
- Ratio [2]: 1.07
- IC50 (L5178Y [3]): > 100 µM
- Activity (L5178Y [4]): 0.352%
- Activity (L5178Y [5]): 5.07%
- Ratio [6]: 0.99
- Activity [7]: 3.19%
- Activity (L5178Y [8]): 2.34%
- Activity (L5178Y [9]): 0.3%
- Activity (L5178Y [10]): 6.64%
- Activity (L5178Y [11]): 6.93%
- Activity [12]: 3.61%

SMILES: O=C(C[Se]C(=O)c1ccccc1)Oc1ccccc1
- IC50 (L5178Y [1]): > 100 µM
- Ratio [2]: 5.68
- IC50 (L5178Y [3]): > 100 µM
- Activity (L5178Y [4]): 0.24%
- Activity (L5178Y [5]): 3.9%
- Ratio [6]: 0.65
- Activity [7]: 2.37%
- Activity (L5178Y [8]): 2.26%
- Activity (L5178Y [9]): 0.16%
- Activity (L5178Y [10]): 3%
- Activity (L5178Y [11]): 2.11%
- Activity [12]: 3.05%

SMILES: c1ccc2c(c1)Nc1c(ccc3ccccc13)S2
- Activity (L5178Y [15]): 0.279%
- Activity (L5178Y [16]): 51.2%
- Activity (L5178Y [17]): 5.58%
- Activity (L5178Y [18]): 47.9%
- Activity (L5178Y [19]): 45.7%
- Activity (L5178Y [20]): 0.12%

SMILES: COc1cc(OC)cc(C(=O)[Se]CC(=O)C(C)(C)C)c1
- IC50 (L5178Y [1]): 1.31 µM
- Ratio (L5178Y [21]): 2
- Ratio [2]: 46.35
- IC50 (L5178Y [3]): 0.97 µM
- Activity (L5178Y [4]): 0.167%
- Activity (L5178Y [5]): 16.6%
- Ratio [6]: 12.56
- Activity [7]: 169.16%
- Activity (L5178Y [8]): 30.5%
- Activity (L5178Y [9]): 0.51%
- Activity (L5178Y [10]): 15.7%
- Activity (L5178Y [11]): 66.6%
- Activity [12]: 45.84%
- fold change (FC) [14]: 1.7

SMILES: C[Se]C(=O)c1cccc(C(=O)[Se]C)c1
- IC50 (L5178Y [1]): > 100 µM
- Ratio [2]: 0.98
- IC50 (L5178Y [3]): > 100 µM
- Activity (L5178Y [4]): 0.076%
- Activity (L5178Y [5]): 4.35%
- Ratio [6]: 0.93
- Activity [7]: 3.39%
- Activity (L5178Y [8]): 2.8%
- Activity (L5178Y [9]): 0.45%
- Activity (L5178Y [10]): 4.47%
- Activity (L5178Y [11]): 3.79%
- Activity [12]: 2.78%

SMILES: CC(=O)C[Se]C(=O)c1ccc(Cl)cc1
- IC50 (L5178Y [1]): 0.78 µM
- Ratio [2]: 84.64
- IC50 (L5178Y [3]): 1.03 µM
- Activity (L5178Y [4]): 0.874%
- Activity (L5178Y [5]): 3.86%
- Ratio [6]: 94.2
- Activity [7]: 308.91%
- Activity (L5178Y [8]): 85.8%
- Activity (L5178Y [9]): 7.66%
- Activity (L5178Y [10]): 30.8%
- Activity (L5178Y [11]): 52.7%
- Activity [12]: 343.79%
- fold change (FC) [13]: 1.6
- fold change (FC) [14]: 1.7

SMILES: C[Se]C(=O)c1cccc(C(=O)[Se]C)n1
- IC50 (L5178Y [1]): 19.5 µM
- Ratio [2]: 1.49
- IC50 (L5178Y [3]): 16.9 µM
- Activity (L5178Y [4]): 0.202%
- Activity (L5178Y [5]): 5.38%
- Ratio [6]: 1.13
- Activity [7]: 5.44%
- Activity (L5178Y [8]): 3.28%
- Activity (L5178Y [9]): 0.24%
- Activity (L5178Y [10]): 5.97%
- Activity (L5178Y [11]): 7.18%
- Activity [12]: 3.98%

SMILES: CC(C)(C)C(=O)C[Se]C(=O)c1ccc(Cl)cc1
- IC50 (L5178Y [1]): 0.94 µM
- Ratio (L5178Y [21]): 2
- Ratio [2]: 48.67
- IC50 (L5178Y [3]): 0.43 µM
- Activity (L5178Y [4]): 0.255%
- Activity (L5178Y [5]): 15.9%
- Ratio [6]: 9.28
- Activity [7]: 177.63%
- Activity (L5178Y [8]): 21.9%
- Activity (L5178Y [9]): 1.21%
- Activity (L5178Y [10]): 36.1%
- Activity (L5178Y [11]): 56.1%
- Activity [12]: 33.87%
- fold change (FC) [14]: 1.7

SMILES: COC(=O)C[Se]C(=O)c1ccc(Cl)cc1
- IC50 (L5178Y [1]): > 100 µM
- Ratio [2]: 8.53
- IC50 (L5178Y [3]): 87.8 µM
- Activity (L5178Y [4]): 0.497%
- Activity (L5178Y [5]): 2.69%
- Ratio [6]: 6.45
- Activity [7]: 23.54%
- Activity (L5178Y [8]): 1.47%
- Activity (L5178Y [9]): 0.03%
- Activity (L5178Y [10]): 5.09%
- Activity (L5178Y [11]): 2.52%
- Activity [12]: 30.28%
